Results as given in patent US20210261570A1, “ANTIBIOTIC RESISTANCE BREAKERS” (KING'S COLLEGE LONDON, priority 2017, published 2021).
Converted amounts (≈) assume the structure as drawn. “Also recorded” adds a separate entry of the source. Where a name gives a salt, the structure may show the parent alone. Read-outs that look alike come from different tables or passages of the source. One block for each compound: values may come before it.

How the values were obtained:
[1] = tested on: MSSA 9144 strain; test: Reserpine assay; format: cell-based, S. aureus; settings: compound at 0.25×MIC with reserpine
Method: (§1) A simple plate based method was used as described by Beyer et al. (24). […] Reserpine was added at a final concentration of 10 µg/mL (made up at 40 μg/mL in TSB, 50 μL per well). The bacteria were added at an OD of 0.01 in TSB (100 μL/well). The plate was a normal clear plate as used for MICs. OD was read every 30 minutes for 9 hours (the literature states 7 hours, but this is strain-dependent). Blanks of TSB and water were added to ensure no infections were present.
(§2) The mechanism of inhibition for reserpine involves direct binding to and competitive inhibition of the efflux pump during drug/H^+ antiport. This assay was validated as a method for testing active efflux of fluoroquinolones in Staphylococcus strains by Beyer et al. (24).

[2] = tested on: EMRSA 15 strain; test: Reserpine assay; format: cell-based, S. aureus; settings: compound at 0.25×MIC with reserpine
Method: as §1, §2

[3] = tested on: Ab17978; test: MIC, microdilution broth method; format: cell-based
[4] = tested on: VRE12201; test: MIC, microdilution broth method; format: cell-based, E. faecalis
[5] = tested on: PA01; test: MIC, microdilution broth method; format: cell-based, Pseudomonas aeruginosa
[6] = tested on: KP13368; test: MIC, microdilution broth method; format: cell-based; settings: in µg/mL
[7] = tested on: EMRSA16; test: MIC, microdilution broth method; format: cell-based, Staphylococcus aureus
[8] = tested on: EMRSA15; test: MIC, microdilution broth method; format: cell-based, Staphylococcus aureus
[9] = tested on: VSE775; test: MIC, microdilution broth method; format: cell-based, E. faecalis
[10] = tested on: EC12923; test: MIC, microdilution broth method; format: cell-based
[11] = tested on: M6; test: MIC, microdilution broth method; format: cell-based
[12] = tested on: S. epidermidis SE1; test: MIC, extended Gram-positive panel; format: cell-based; settings: for MIC: S. epidermidis SE1, in µg/mL
[13] = tested on: S. aureus SA2; format: cell-based; settings: for MIC: S. aureus SA2, in µg/mL
[14] = tested on: S. aureus SA4; test: MIC, extended Gram-positive panel; format: cell-based; settings: for MIC: S. aureus SA4
[15] = tested on: S. aureus SA3; test: MIC, extended Gram-positive panel; format: cell-based; settings: for MIC: S. aureus SA3
[16] = tested on: S. aureus SA8; test: MIC, extended Gram-positive panel; format: cell-based; settings: for MIC: S. aureus SA8
[17] = tested on: S. aureus SA5; test: MIC, extended Gram-positive panel; format: cell-based; settings: for MIC: S. aureus SA5
[18] = tested on: S. aureus SA1; format: cell-based; settings: for MIC: S. aureus SA1
[19] = tested on: S. aureus SA7; test: MIC, extended Gram-positive panel; format: cell-based; settings: for MIC: S. aureus SA7
[20] = tested on: E. faecium EF2; test: MIC, extended Gram-positive panel; format: cell-based; settings: for MIC: E. faecium EF2, in µg/mL
[21] = tested on: S. aureus SA9; test: MIC, extended Gram-positive panel; format: cell-based; settings: for MIC: S. aureus SA9
[22] = tested on: E. faecalis EF1; test: MIC, extended Gram-positive panel; format: cell-based; settings: for MIC: E. faecalis EF1
[23] = tested on: S. haemolyticus SH1; test: MIC, extended Gram-positive panel; format: cell-based; settings: for MIC: S. haemolyticus SH1
[24] = tested on: S. aureus SA6; test: MIC, extended Gram-positive panel; format: cell-based; settings: for MIC: S. aureus SA6
[25] = tested on: S. aureus SA10; test: MIC, extended Gram-positive panel; format: cell-based; settings: for MIC: S. aureus SA10, in µg/mL
[26] = tested on: VRE12204; test: MIC, microdilution broth method; format: cell-based, E. faecium
[27] = tested on: MSSA9144; test: MIC, microdilution broth method; format: cell-based, S. aureus
[28] = tested on: AYE; test: MIC, microdilution broth method; format: cell-based, Acinetobacter baumannii; settings: Normal (without PMBN), in µg/mL
[29] = tested on: multidrug resistant strains; test: Reserpine growth assay in several multidrug resistant strains; format: cell-based; settings: FIG. 27
[30] = EC12923, Normal (without PMBN), in µg/mL

Compound: CCn1cc(C(=O)O)c(=O)c2cc(F)c(N3CCNCC3)cc21 [Norfloxacin, norfloxacin, reference compound]
efflux by the strain (reserpine assay) [1]: effluxed
efflux by the strain (reserpine assay) [2]: effluxed

Compound: Cc1cc(N2CCN(c3c(F)cc4c(=O)c(C(=O)O)cn5c4c3OC[C@@H]5C)CC2)nc(C(C)C)n1 [ML-83-012, (S)-9-fluoro-10-(4-(2-isopropyl-6-methylpyrimidin-4-yl)piperazin-1-yl)-3-methyl-7-oxo-2,3-dihydro-7H-[1,4]oxazino[2,3,4-ij]quinoline-6-carboxylic Acid Hydrochloride]
MIC ([3]; Acinetobacter baumannii, Acinetobacter baumannii (AB17978)): 8 µg/mL
MIC ([4]; Enterococcus faecalis, Enterococcus (VRE12201)): ≤ 0.125 µg/mL
MIC ([4]; VRE12201, Gram-positive, in µg/mL): 0.5-1
MIC ([5]; Pseudomonas aeruginosa, Pseudomonas aeruginosa (PA01)): 32 µg/mL
MIC ([6]; Gram-negative): 64
MIC ([7]; EMRSA16, Gram-positive): 16 µg/mL
MIC ([7]; Staphylococcus aureus, Staphylococcus aureus (EMRSA16)): 2 µg/mL
MIC ([8]; EMRSA15, Gram-positive, in µg/mL): 16
MIC ([8]; Staphylococcus aureus): 2 µg/mL
MIC ([9]; Enterococcus faecalis): 0.5 µg/mL
MIC ([9]; VSE775, Gram-positive): 1 µg/mL
MIC ([10]; Escherichia coli, Escherichia coli (EC12923)): 4 µg/mL
MIC ([11]; Klebsiella pneumoniae, Klebsiella pneumoniae (M6)): 16 µg/mL
MIC ([11]; M6, Gram-negative, in µg/mL): 16

MIC ([11]; Klebsiella pneumoniae (M6), read-out: MIC): 0.5 µg/mL (≈ 1.18 µM)
Compound: C[C@H]1COc2c(N3CC[C@@H](Nc4cnccn4)C3)c(F)cc3c(=O)c(C(=O)O)cn1c23 [KSN-BL1]

Compound: CCn1cc(C(=O)O)c(=O)c2cc(F)c(N3CCN(Cc4ccc(S(=O)(=O)NCCc5c[nH]c6ccccc56)cc4)CC3)cc21 [ML-77-146]
MIC +PMBN ([3]; Ab17978, +PMBN): 4
MIC +PMBN ([5]; PA01, +PMBN): 0.25
MIC +PMBN ([11]; M6, +PMBN): 28

Compound: O=C(O)c1cn(C2CC2)c2cc(N3CCNCC3)c(F)cc2c1=O [Ciprofloxacin, ciprofloxacin, reference compound]
MIC [12]: 0.5-1

Compound: CCn1cc(C(=O)O)c(=O)c2cc(F)c(N3CCNCC3)cc21 [NOR]
MIC [13]: 8-64
MIC [12]: 1-4
MIC [14]: 64 µg/mL (≈ 200 µM)
MIC [15]: 64 µg/mL (≈ 200 µM)

Compound: C[C@H]1COc2c(N3CCN(c4ccncc4)CC3)c(F)cc3c(=O)c(C(=O)O)cn1c23 [ML-83-019]
MIC ([3]; Ab17978, Normal (without PMBN)): 64 µg/mL (≈ 151 µM)
MIC [10, 30]: 32
MIC ([11]; M6, Normal (without PMBN), in µg/mL): 64

MIC [16]: 2 µg/mL (≈ 4.24 µM)
MIC [17]: 2 µg/mL (≈ 4.24 µM)
MIC [13]: 0.5
MIC [18]: 2 µg/mL (≈ 4.24 µM)
MIC [19]: 2 µg/mL (≈ 4.24 µM)
MIC [20]: 2
MIC [21]: 2 µg/mL (≈ 4.24 µM)
MIC [22]: 2 µg/mL (≈ 4.24 µM)
MIC [14]: 2 µg/mL (≈ 4.24 µM)
MIC [24]: 2 µg/mL (≈ 4.24 µM)
MIC [15]: 2 µg/mL (≈ 4.24 µM)
MIC [25]: 2
Compound: O=C(O)c1cn(C2CC2)c2cc(N3CCN(Cc4cccc5ccccc45)CC3)c(F)cc2c1=O [ML-77-005]
MIC [23]: 4 µg/mL (≈ 8.48 µM)

MIC ([4]; VRE12201, in µg/mL): 4
MIC ([7]; EMRSA16): 4 µg/mL (≈ 8.7 µM)
MIC ([8]; EMRSA15, in µg/mL): 4
MIC ([9]; VSE775): 4 µg/mL (≈ 8.7 µM)
MIC [26]: 2 µg/mL (≈ 4.35 µM)
MIC [27]: 0.25 µg/mL (≈ 0.544 µM)
MIC ([11]; M6, in µg/mL): 16-32
Compound: CCn1cc(C(=O)O)c(=O)c2cc(F)c(N3CCN(Cc4ccc5ccccc5c4)CC3)cc21 [ML-77-31]

MIC ([4]; VRE12201, in µg/mL): 16
MIC ([7]; EMRSA16): 8 µg/mL (≈ 16.8 µM)
MIC ([8]; EMRSA15, in µg/mL): 8
MIC ([9]; VSE775): 8 µg/mL (≈ 16.8 µM)
MIC [27]: 8 µg/mL (≈ 16.8 µM)
Compound: CCn1cc(C(=O)O)c(=O)c2cc(F)c(N3CCN(Cc4ccc(F)c5ccccc45)CC3)cc21 [ML-77-49]

Compound: C[C@H]1COc2c(N3CCC(n4cccn4)CC3)c(F)cc3c(=O)c(C(=O)O)cn1c23 [ML-83-041, (S)-10-(4-(1H-pyrazol-1-yl)piperidin-1-yl)-9-fluoro-3-methyl-7-oxo-2,3-dihydro-7H-[1,4]oxazino[2,3,4-ij]quinoline-6-carboxylic Acid]
MIC ([6]; Normal (without PMBN)): 16-32
MIC [28]: 64-128
MIC [10, 30]: 1-2

Compound: CCn1cc(C(=O)O)c(=O)c2cc(F)c(N3CCN(Cc4cccc5ccccc45)CC3)nc21 [ML-77-025]
fold potentiation of MIC ([7]; EMRSA16, vs parent fluoroquinolone): 64-128 fold
fold potentiation of MIC ([8]; EMRSA15, vs parent fluoroquinolone): 64-128 fold

Compound: Cc1cc(C)nc(N[C@@H]2CCN(c3c(F)cc4c(=O)c(C(=O)O)cn5c4c3OC[C@@H]5C)C2)n1 [KSN-BL7]
efflux from the bacteria (reserpine growth assay) [29]: reduced efflux

MIC [16]: 2 µg/mL (≈ 4.35 µM)
MIC [17]: 2 µg/mL (≈ 4.35 µM)
MIC [13]: 1
MIC [18]: 4 µg/mL (≈ 8.7 µM)
MIC [19]: 2 µg/mL (≈ 4.35 µM)
MIC [20]: 2-4
MIC [21]: 2 µg/mL (≈ 4.35 µM)
MIC [12]: 1
MIC [22]: 4 µg/mL (≈ 8.7 µM)
MIC [14]: 2 µg/mL (≈ 4.35 µM)
MIC [24]: 2 µg/mL (≈ 4.35 µM)
MIC [15]: 2 µg/mL (≈ 4.35 µM)
MIC [25]: 2
Compound: CCn1cc(C(=O)O)c(=O)c2cc(F)c(N3CCN(Cc4cccc5ccccc45)CC3)cc21 [ML-77-021]
Fold decrease ([16]; SA8, MIC of ML-77-005 vs CIP, of ML-77-021 vs NOR): 64
Fold decrease ([17]; SA5, MIC of ML-77-005 vs CIP, of ML-77-021 vs NOR): ≥64
efflux by the strain (reserpine assay) [1]: cannot be effluxed; also recorded: not effluxed
efflux by the strain (reserpine assay) [2]: cannot be effluxed
efflux by the strain (reserpine assay) ([2]; listed as napthyl-linked norfloxacin): not effluxed
Fold decrease ([13]; SA2, MIC of ML-77-005 vs CIP, of ML-77-021 vs NOR): 8-64
Fold decrease ([18]; SA1, MIC of ML-77-005 vs CIP, of ML-77-021 vs NOR): ≥32
Fold decrease ([19]; SA7, MIC of ML-77-005 vs CIP, of ML-77-021 vs NOR): ≥64
Fold decrease ([20]; EF2, MIC of ML-77-005 vs CIP, of ML-77-021 vs NOR): ≥32
Fold decrease ([21]; SA9, MIC of ML-77-005 vs CIP, of ML-77-021 vs NOR): ≥64
Fold decrease ([12]; SE1, MIC of ML-77-005 vs CIP, of ML-77-021 vs NOR): 1-4
Fold decrease ([22]; EF1, MIC of ML-77-005 vs CIP, of ML-77-021 vs NOR): ≥32
Fold decrease ([14]; SA4, MIC of ML-77-005 vs CIP, of ML-77-021 vs NOR): 32
MIC [23]: 4 µg/mL (≈ 8.7 µM)
Fold decrease ([23]; SH1, MIC of ML-77-005 vs CIP, of ML-77-021 vs NOR): 32
Fold decrease ([24]; SA6, MIC of ML-77-005 vs CIP, of ML-77-021 vs NOR): ≥64
Fold decrease ([15]; SA3, MIC of ML-77-005 vs CIP, of ML-77-021 vs NOR): 32
Fold decrease ([25]; SA10, MIC of ML-77-005 vs CIP, of ML-77-021 vs NOR): 64

Compound: C[C@H]1COc2c(N3CCN(c4ccncn4)CC3)c(F)cc3c(=O)c(C(=O)O)cn1c23 [ML-83-001, (S)-9-fluoro-3-methyl-7-oxo-10-(4-(pyrimidin-4-yl)piperazin-1-yl)-2,3-dihydro-7H-[1,4]oxazino[2,3,4-ij]quinoline-6-carboxylic Acid]
MIC [10, 30]: 1-4
